Reference: PMC6314990 (Forensic Toxicology, 2018)

Experiments:
[1] = system: pentobarbital-induced sleep in mice; assay: Cannabinoid-induced potentiation of pentobarbital-induced sleep and effect of CB1 receptor antagonists; type: in vivo, ddY mice; conditions: for Prolongation of pentobarbital-induced sleep compared with vehicle-pretreated group (Veh + Veh): cannabinoid 10 mg/kg i.v., pentobarbital 40 mg/kg i.p. 15 min later, male ddY mice, n = 8
Experimental: For the pharmacological studies, cannabinoids and antagonists were suspended in saline containing 1% Tween 80. Sodium pentobarbital was dissolved in saline and injected intraperitoneally (i.p.; 40 mg/kg) for the mice. Male ddY mice weighing 20–25 g were housed in groups of 8. All animals were kept in a temperature-controlled (25 °C) environment with a 12-h light–dark cycle (lights on at 7:00 a.m.) and received food and water ad libitum. […] One percent Tween 80-saline solution was injected instead of cannabinoids or antagonists for the vehicle treated group as a control.

CB1 receptor = CB1 receptor (Mus musculus, UniProt P47746)
CB1 receptor, sequence (P47746 whole entry): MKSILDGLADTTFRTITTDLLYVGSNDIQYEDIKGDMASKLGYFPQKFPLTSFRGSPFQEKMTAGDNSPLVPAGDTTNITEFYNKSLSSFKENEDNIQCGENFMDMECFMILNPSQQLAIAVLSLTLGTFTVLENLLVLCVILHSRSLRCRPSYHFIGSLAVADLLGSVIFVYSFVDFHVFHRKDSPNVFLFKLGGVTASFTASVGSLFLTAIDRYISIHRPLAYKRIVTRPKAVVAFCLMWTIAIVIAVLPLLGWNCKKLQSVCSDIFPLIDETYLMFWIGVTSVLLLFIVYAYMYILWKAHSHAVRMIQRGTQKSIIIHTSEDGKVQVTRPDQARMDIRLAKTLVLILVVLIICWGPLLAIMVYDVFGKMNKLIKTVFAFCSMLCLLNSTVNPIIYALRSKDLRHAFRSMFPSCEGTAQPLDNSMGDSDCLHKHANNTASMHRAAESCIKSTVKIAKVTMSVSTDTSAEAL
Experimental: Crude synaptic membranes from ddY male mice brains were prepared according to the method of Zukin et al. [32] with a slight modification. Briefly, whole mice brains were homogenized in 15 volumes of ice-cold 0.32 M sucrose for 1 min with a Polytron homogenizer (Kinematica, Lucerne, Switzerland), followed by centrifugation at 1000 g for 10 min at 4 °C. The pellet was discarded and the supernatant was centrifuged at 20000g for 20 min at 4 °C. This pellet was homogenized for 15 s in 40 volumes of ice-cold distilled water and further dispersed with a Polytron homogenizer. The suspension was then centrifuged at 8000g for 20 min at 4 °C. The supernatant and the soft buffy upper layer of the pellet were carefully collected and combined. This fraction was then centrifuged at 48000g for 20 min at 4 °C.
A ligand binding assay for the cannabinoid receptor was performed according to the method of Devane et al. [34] and Compton et al. [16]. […] The filters were then placed in glass scintillation vials with 10 ml of Clearsol and the radioactivity was counted using a liquid scintillation counter (LSC-6100, Aloka, Tokyo, Japan). […] The inhibitory constant (Ki value) was calculated according to the method of Speth et al. [35].

## Cc1c(C(=O)NN2CCCCC2)nn(-c2ccc(Cl)cc2Cl)c1-c1ccc(I)cc1 [AM251, N-(piperidin-1-yl)-5-(4-iodophenyl)-1-(2,4-dichlorophenyl)-4-methyl-1H-pyrazole-3-carboxamide]
[1]; antagonist 2 mg/kg i.v., ∆9-THC 10 mg/kg i.v., pentobarbital 40 mg/kg i.p., mice
  Effect of antagonist on potentiating effect of ∆9-THC on pentobarbital-induced sleep, low dose: attenuated
[1]; antagonist 2–10 mg/kg i.v. 10 min before ∆9-THC 10 mg/kg i.v., pentobarbital 40 mg/kg i.p., mice
  Effect of antagonist pretreatment on potentiation of pentobarbital-induced sleep by ∆9-THC: decreased dose-dependently
[1]; without ∆9-THC, pentobarbital 40 mg/kg i.p., mice
  Effect of antagonist alone (antagonist + Veh) on pentobarbital-induced sleeping time: no change in pentobarbital-induced sleeping time

## C=C(C)[C@@H]1CCC(C)=C[C@H]1c1c(O)cc(CCCCC)cc1O [CBD, cannabidiol]
[1]
  Prolongation of pentobarbital-induced sleep compared with vehicle-pretreated group (Veh + Veh): 1.8 fold

## CCCC(C)C1(CC)C(=O)NC(=O)NC1=O (stereo not shown) [Pentobarbital, sodium pentobarbital]
CB1 receptor; pentobarbital 1 mM added to the reaction mixture, control 0.055 ± 0.002, N.S. vs control
  Specific [3H]CP55940 binding: 0.050 ± 0.003 ^N.S. pmol/mg protein
CB1 receptor; pentobarbital 1 mM, mouse brain synaptic membrane
  Effect on specific [3H]CP55940 binding: did not affect specific [^3H]CP55940 binding

## CCCCCc1cc(O)c2c(c1)OC(C)(C)[C@@H]1CCC(C)=CC21 (stereo partly shown) [∆^9-THC, ∆^9-tetrahydrocannabinol]
[1]
  Prolongation of pentobarbital-induced sleep compared with vehicle-pretreated group (Veh + Veh): 3.3 fold
